Laboratory results from US20260138958A1, “SUBSTITUTED N-PHENYLURACILS AND SALTS THEREOF, AND USE THEREOF AS HERBICIDAL ACTIVE SUBSTANCES” (Bayer Aktiengesellschaft, priority 2022, published 2026).

Tests used:
Format in all cases: in vivo
[1] = system: Triticum aestivum (TRZAS); assay: Post-emergence crop plant compatibility, greenhouse pot test
Procedure: (§1) Seeds of monocotyledonous and dicotyledonous weeds and crop plants were placed in sandy loam in plastic or wood-fibre pots, covered with soil and cultivated in a greenhouse under controlled growth conditions. 2 to 3 weeks after sowing, the test plants were treated at the one-leaf stage. The compounds of the invention, formulated in the form of wettable powders (WP) or as emulsion concentrates (EC), were then sprayed onto the green parts of the plants as aqueous suspension or emulsion with addition of 0.5% additive at a water application rate of 600 l/ha (converted). After the test plants had been kept in the greenhouse under optimum growth conditions for about 3 weeks, the activity of the preparations was rated visually in comparison to untreated controls. For example, 100% activity=the plants have died, 0% activity=like control plants.
The observed effects on selected crop plants are reported here in comparison to the untreated controls (values in %).

[2] = system: Digitaria sanguinalis (DIGSA); assay: Post-emergence herbicidal action, greenhouse pot test
Procedure: as §1

[3] = system: Polygonum convolvulus (POLCO); assay: as above
Procedure: as §1

[4] = system: Amaranthus retroflexus (AMARE); assay: as above
Procedure: as §1

[5] = system: Pharbitis purpurea (PHBPU); assay: as above
Procedure: as §1

Veronica persica (VERPE) = assay: as above
Procedure: as §1

Viola tricolor (VIOTR) = assay: as above
Procedure: as §1

[6] = system: Abutilon theophrasti (ABUTH); assay: as above
Procedure: as §1

Lolium rigidum (LOLRI) = assay: as above
Procedure: as §1

Bassia scoparia (KCHSC) = assay: as above
Procedure: as §1

[7] = system: Echinochloa crus-galli (ECHCG); assay: as above
Procedure: as §1

[8] = system: Alopecurus myosuroides (ALOMY); assay: as above
Procedure: as §1

[9] = system: Tripleurospermum inodorum (MATIN); assay: as above
Procedure: as §1

Setaria viridis (SETVI) = assay: as above
Procedure: as §1

With `CC(OC(=O)COc1ccccc1Oc1cc(-n2c(=O)cc(C(F)(F)F)n(C)c2=O)c(F)cc1Cl)C1CC1` (stereo not shown) [I.7-2, 1-Cyclopropylethyl (2-{2-chloro-4-fluoro-5-[3-methyl-2,6-dioxo-4-(trifluoromethyl)-3,6-dihydropyrimidin-1(2H)-yl]phenoxy}phenoxy)acetate] the “Post-emergence effect at 1.25 g/ha against TRZAS in %” value ([1]; Triticum aestivum, in vivo) was 10%, the “Post-emergence effect at 1.25 g/ha against DIGSA in %” value ([2]; 1.25 g/ha) was 100% and the “Post-emergence effect at 5 g/ha against DIGSA in %” value [2] was 100%. The “Post-emergence effect at 20 g/ha against DIGSA in %” value [2] was 100%, the pest or weed control at 5 g/ha ([3]; Fallopia convolvulus, 504 h, 5 g/ha, read-out: Post-emergence effect at 5 g/ha against POLCO in %) was 100% and the pest or weed control at 20 g/ha ([3]; Fallopia convolvulus, 504 h, 20 g/ha, read-out: Post-emergence effect at 20 g/ha against POLCO in %) was 100%. The pest or weed control at 1.25 g/ha ([4]; Amaranthus retroflexus, 504 h, 1.25 g/ha, read-out: Post-emergence effect at 1.25 g/ha against AMARE in %) was 100%, the pest or weed control at 5 g/ha ([4]; Amaranthus retroflexus, 504 h, 5 g/ha, read-out: Post-emergence effect at 5 g/ha against AMARE in %) was 100% and the pest or weed control at 20 g/ha ([4]; Amaranthus retroflexus, 504 h, 20 g/ha, read-out: Post-emergence effect at 20 g/ha against AMARE in %) was 100%. The pest or weed control at 5 g/ha ([5]; Ipomoea purpurea, 504 h, 5 g/ha, read-out: Post-emergence effect at 5 g/ha against PHBPU in %) was 100%, the pest or weed control at 20 g/ha ([5]; Ipomoea purpurea, 504 h, 20 g/ha, read-out: Post-emergence effect at 20 g/ha against PHBPU in %) was 100% and the “Post-emergence effect at 1.25 g/ha against VERPE in %” value (Veronica persica (VERPE)) was 100%. For the same compound, the pest or weed control at 5 g/ha (Veronica persica (VERPE); Veronica persica, 504 h, 5 g/ha, read-out: Post-emergence effect at 5 g/ha against VERPE in %) was 100%, the pest or weed control at 20 g/ha (Veronica persica (VERPE); Veronica persica, 504 h, 20 g/ha, read-out: Post-emergence effect at 20 g/ha against VERPE in %) was 100% and the “Post-emergence effect at 1.25 g/ha against VIOTR in %” value (Viola tricolor (VIOTR)) was 100%. For the same compound, the “Post-emergence effect at 5 g/ha against VIOTR in %” value (Viola tricolor (VIOTR)) was 100%, the pest or weed control at 20 g/ha (Viola tricolor (VIOTR); Viola tricolor, 504 h, 20 g/ha, read-out: Post-emergence effect at 20 g/ha against VIOTR in %) was 100% and the “Post-emergence effect at 1.25 g/ha against ABUTH in %” value [6] was 80%. The pest or weed control at 5 g/ha ([6]; Abutilon theophrasti, 504 h, 5 g/ha, read-out: Post-emergence effect at 5 g/ha against ABUTH in %) was 100%, the pest or weed control at 20 g/ha ([6]; Abutilon theophrasti, 504 h, 20 g/ha, read-out: Post-emergence effect at 20 g/ha against ABUTH in %) was 100% and the “Post-emergence effect at 20 g/ha against LOLRI in %” value (Lolium rigidum (LOLRI)) was 100%. For the same compound, the “Post-emergence effect at 1.25 g/ha against KCHSC in %” value (Bassia scoparia (KCHSC)) was 100%, the “Post-emergence effect at 5 g/ha against KCHSC in %” value (Bassia scoparia (KCHSC)) was 100% and the “Post-emergence effect at 20 g/ha against KCHSC in %” value (Bassia scoparia (KCHSC)) was 100%. For the same compound, the “Post-emergence effect at 5 g/ha against ECHCG in %” value [7] was 100%, the pest or weed control at 20 g/ha ([7]; Echinochloa crus-galli, 504 h, 20 g/ha, read-out: Post-emergence effect at 20 g/ha against ECHCG in %) was 100% and the pest or weed control at 20 g/ha ([8]; Alopecurus myosuroides, 504 h, 20 g/ha, read-out: Post-emergence effect at 20 g/ha against ALOMY in %) was 80%. The pest or weed control at 20 g/ha ([9]; Tripleurospermum inodorum, 504 h, 20 g/ha, read-out: Post-emergence effect at 20 g/ha against MATIN in %) was 100%, the “Post-emergence effect at 1.25 g/ha against SETVI in %” value (Setaria viridis (SETVI)) was 100% and the pest or weed control at 5 g/ha (Setaria viridis (SETVI); Setaria viridis, 504 h, 5 g/ha, read-out: Post-emergence effect at 5 g/ha against SETVI in %) was 100%. For the same compound, the pest or weed control at 20 g/ha (Setaria viridis (SETVI); Setaria viridis, 504 h, 20 g/ha, read-out: Post-emergence effect at 20 g/ha against SETVI in %) was 100%.
`Cn1c(C(F)(F)F)cc(=O)n(-c2cc(Oc3ccccc3OCC(=O)OCC3(C)CC3)c(Cl)cc2F)c1=O` [I.7-5] was tested, and the “Post-emergence effect at 5 g/ha against DIGSA in %” value [2] was 100%, the “Post-emergence effect at 20 g/ha against DIGSA in %” value [2] was 100% and the “Post-emergence effect at 20 g/ha against POLCO in %” value ([3]; 20 g/ha) was 100%. The “Post-emergence effect at 1.25 g/ha against AMARE in %” value ([4]; 1.25 g/ha) was 100%, the “Post-emergence effect at 5 g/ha against AMARE in %” value ([4]; 5 g/ha) was 100% and the “Post-emergence effect at 20 g/ha against AMARE in %” value ([4]; 20 g/ha) was 100%. The “Post-emergence effect at 1.25 g/ha against PHBPU in %” value ([5]; 1.25 g/ha) was 100%, the “Post-emergence effect at 5 g/ha against PHBPU in %” value ([5]; 5 g/ha) was 100% and the “Post-emergence effect at 20 g/ha against PHBPU in %” value ([5]; 20 g/ha) was 100%. The “Post-emergence effect at 1.25 g/ha against VERPE in %” value (Veronica persica (VERPE)) was 100%, the “Post-emergence effect at 5 g/ha against VERPE in %” value (Veronica persica (VERPE); 5 g/ha) was 100% and the “Post-emergence effect at 20 g/ha against VERPE in %” value (Veronica persica (VERPE); 20 g/ha) was 100%. For the same compound, the “Post-emergence effect at 1.25 g/ha against VIOTR in %” value (Viola tricolor (VIOTR)) was 100%, the “Post-emergence effect at 5 g/ha against VIOTR in %” value (Viola tricolor (VIOTR)) was 100% and the “Post-emergence effect at 20 g/ha against VIOTR in %” value (Viola tricolor (VIOTR); 20 g/ha) was 100%. The “Post-emergence effect at 1.25 g/ha against ABUTH in %” value [6] was 100%, the “Post-emergence effect at 5 g/ha against ABUTH in %” value ([6]; 5 g/ha) was 100% and the “Post-emergence effect at 20 g/ha against ABUTH in %” value ([6]; 20 g/ha) was 100%. The “Post-emergence effect at 1.25 g/ha against KCHSC in %” value (Bassia scoparia (KCHSC)) was 100%, the “Post-emergence effect at 5 g/ha against KCHSC in %” value (Bassia scoparia (KCHSC)) was 100% and the “Post-emergence effect at 20 g/ha against KCHSC in %” value (Bassia scoparia (KCHSC)) was 100%. The “Post-emergence effect at 5 g/ha against ECHCG in %” value [7] was 100%, the “Post-emergence effect at 20 g/ha against ECHCG in %” value ([7]; 20 g/ha) was 100% and the “Post-emergence effect at 5 g/ha against ALOMY in %” value ([8]; 5 g/ha) was 80%. For the same compound, the “Post-emergence effect at 20 g/ha against ALOMY in %” value ([8]; 20 g/ha) was 100%, the “Post-emergence effect at 5 g/ha against MATIN in %” value ([9]; 5 g/ha) was 100% and the “Post-emergence effect at 20 g/ha against MATIN in %” value ([9]; 20 g/ha) was 100%. For the same compound, the “Post-emergence effect at 1.25 g/ha against SETVI in %” value (Setaria viridis (SETVI)) was 100%, the “Post-emergence effect at 5 g/ha against SETVI in %” value (Setaria viridis (SETVI); 5 g/ha) was 100% and the “Post-emergence effect at 20 g/ha against SETVI in %” value (Setaria viridis (SETVI); 20 g/ha) was 100%.
With `CC(OC(=O)COc1ccccc1Oc1cc(-n2c(=O)cc(C(F)(F)F)n(C)c2=O)c(F)cc1Cl)C1CCCCC1` (stereo not shown) [I.7-15] the “Post-emergence effect at 1.25 g/ha against TRZAS in %” value ([1]; crop plant, post-emergence, 1.25 g/ha) was 20%, the “Post-emergence effect at 20 g/ha against DIGSA in %” value [2] was 100% and the “Post-emergence effect at 20 g/ha against POLCO in %” value ([3]; 20 g/ha) was 100%. The “Post-emergence effect at 1.25 g/ha against AMARE in %” value ([4]; 1.25 g/ha) was 100%, the “Post-emergence effect at 5 g/ha against AMARE in %” value ([4]; 5 g/ha) was 100% and the “Post-emergence effect at 20 g/ha against AMARE in %” value ([4]; 20 g/ha) was 100%. The “Post-emergence effect at 5 g/ha against PHBPU in %” value ([5]; 5 g/ha) was 100%, the “Post-emergence effect at 20 g/ha against PHBPU in %” value ([5]; 20 g/ha) was 100% and the “Post-emergence effect at 1.25 g/ha against VERPE in %” value (Veronica persica (VERPE)) was 80%. The “Post-emergence effect at 5 g/ha against VERPE in %” value (Veronica persica (VERPE); 5 g/ha) was 100%, the “Post-emergence effect at 20 g/ha against VERPE in %” value (Veronica persica (VERPE); 20 g/ha) was 100% and the “Post-emergence effect at 5 g/ha against VIOTR in %” value (Viola tricolor (VIOTR)) was 100%. The “Post-emergence effect at 20 g/ha against VIOTR in %” value (Viola tricolor (VIOTR); 20 g/ha) was 100%, the “Post-emergence effect at 20 g/ha against ABUTH in %” value ([6]; 20 g/ha) was 100% and the “Post-emergence effect at 5 g/ha against KCHSC in %” value (Bassia scoparia (KCHSC)) was 100%. For the same compound, the “Post-emergence effect at 20 g/ha against KCHSC in %” value (Bassia scoparia (KCHSC)) was 100%, the “Post-emergence effect at 5 g/ha against ECHCG in %” value [7] was 90% and the “Post-emergence effect at 20 g/ha against ECHCG in %” value ([7]; 20 g/ha) was 100%. For the same compound, the “Post-emergence effect at 20 g/ha against ALOMY in %” value ([8]; 20 g/ha) was 80%, the “Post-emergence effect at 5 g/ha against SETVI in %” value (Setaria viridis (SETVI); 5 g/ha) was 100% and the “Post-emergence effect at 20 g/ha against SETVI in %” value (Setaria viridis (SETVI); 20 g/ha) was 100%.
